Results from patent publication US10519133B2, “Vinyl compounds as FGFR and VEGFR inhibitors” (MEDSHINE DISCOVERY INC., priority 2015, dated 2019).

What follows are compounds tested against T1, FGFR1 (Homo sapiens, UniProt P11362) (assay: Z′-LYTE Detection Kinase Assay, in vitro enzymatic activity). Conditions: 0.6 nM FGFR1, 2 uM Tyr4 peptide, 10 uM ATP, 60 min 23° C.
T1 construct: purchased Invitrogen PV4105
Assay type: biochemical
Description: To measure enzyme activity by Z′-LYTE™ Detection Kinase Assay, and to evaluate the inhibitory effect of the compounds on FGFR1 using IC50 value of the compounds as an indicator. […]
Reaction Buffer: 50 mM Hepes (pH 7.5), 10 mM MgCl2, 1 mM EGTA, 0.01% Brij-35, 1 mM DTT, 2 mM MnCl2 0.6 nM FGFR1, 2 uM Tyr4 peptide and 10 uM ATP in reaction buffer (50 mM Hepes, pH 7.5, 10 mM MgCl2, 0.01% BRIJ-35, 1 mM EGTA, 4 mM MnCl2, 2 mM DTT). a. Diluting the compounds with DMSO to 10 mM, 3-fold dilution, 11 gradients, duplicate wells. b. Diluting the compound by 1:25 into middle plate at Bravo Automatic Liquid Station, then transferring 2.5 ul to the reaction plate to ensure the final DMSO concentration to be 1%. c. Transferring 5 ul of enzyme/substrate buffer into each well d. Using Multidrop Liquid Workstation to sequentially add ATP solution to each well e. Centrifuging at 1000 rpm for 1 minute f. Placing the reaction plate in an incubator at 23° C. to react for 60 min. a. Preparing a 1:128 mixture of Development Regent B and Development Buffer b. Adding 5 ul to each well and centrifuging at 1000 rpm for 1 minute c. Placing the reaction plate in a thermostat (23° C.) after centrifuging for 90 minutes, removing and reading on Envision (Perkin Elmer) Plate Reader
D. Analyzing Data: Analyzing Data Using XLFIT (IDBS) and Calculating IC50 Values for the Compounds.

T1 sequence (P11362 22-822): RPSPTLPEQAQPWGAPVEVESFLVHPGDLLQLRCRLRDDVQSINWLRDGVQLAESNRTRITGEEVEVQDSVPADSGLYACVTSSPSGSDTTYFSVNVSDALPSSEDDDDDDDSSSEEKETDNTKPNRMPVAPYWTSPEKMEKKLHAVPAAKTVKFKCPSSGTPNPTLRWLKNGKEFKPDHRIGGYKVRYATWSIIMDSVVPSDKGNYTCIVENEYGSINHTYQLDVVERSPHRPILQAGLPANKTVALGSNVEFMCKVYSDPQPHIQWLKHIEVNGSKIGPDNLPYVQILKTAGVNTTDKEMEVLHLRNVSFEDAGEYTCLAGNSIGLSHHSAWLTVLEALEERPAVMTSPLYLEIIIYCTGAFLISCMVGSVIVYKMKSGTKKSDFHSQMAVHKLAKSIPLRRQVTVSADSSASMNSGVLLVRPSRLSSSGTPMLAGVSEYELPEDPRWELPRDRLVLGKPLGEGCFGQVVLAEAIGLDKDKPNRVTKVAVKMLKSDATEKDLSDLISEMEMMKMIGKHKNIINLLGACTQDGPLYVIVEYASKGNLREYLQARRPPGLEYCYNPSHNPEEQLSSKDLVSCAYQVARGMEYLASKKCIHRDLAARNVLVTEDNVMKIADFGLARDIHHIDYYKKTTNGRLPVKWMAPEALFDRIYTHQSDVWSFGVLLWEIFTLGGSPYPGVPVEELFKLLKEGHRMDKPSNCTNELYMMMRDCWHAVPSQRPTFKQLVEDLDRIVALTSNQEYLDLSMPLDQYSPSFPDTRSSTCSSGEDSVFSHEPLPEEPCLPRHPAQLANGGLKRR

Structure (SMILES) | IC50
CC(Oc1ccc2[nH]nc(/C=C/c3cncc(CN4CCOCC4)c3)c2c1)c1c(Cl)cncc1Cl (stereo not drawn) [Example 50] | ≤ 0.01 µM
CC(Oc1ccc2[nH]nc(/C=C/c3cnc(CN4CCOCC4)nc3)c2c1)c1c(Cl)cncc1Cl (stereo not drawn) [Example 51] | ≤ 0.01 µM
CC(Oc1ccc2[nH]nc(/C=C/c3ncc(CN4CCOCC4)cn3)c2c1)c1c(Cl)cncc1Cl (stereo not drawn) [Example 52] | 0.05 to 1 µM
CC(Oc1ccc2[nH]nc(/C=C/c3ccc(CN4CCOCC4)c4ccccc34)c2c1)c1c(Cl)cncc1Cl (stereo not drawn) [Example 56] | 0.05 to 1 µM
Cc1cc(/C=C/c2n[nH]c3ccc(OC(C)c4c(Cl)cncc4Cl)cc23)ccc1CN1CCOCC1 (stereo not drawn) [Example 58] | 0.05 to 1 µM
CC(Oc1ccc2[nH]nc(/C=C/c3cc(N)c(CN4CCOCC4)cc3F)c2c1)c1c(Cl)cncc1Cl (stereo not drawn) [Example 61] | 0.05 to 1 µM
CC(Oc1ccc2[nH]nc(/C=C/c3ccc(CN4CCOCC4)c(C(F)(F)F)c3)c2c1)c1c(Cl)cncc1Cl (stereo not drawn) [Example 64] | 0.05 to 1 µM
[2H]C([2H])(c1ccc(/C=C/c2n[nH]c3ccc(OC(C)c4c(Cl)cncc4Cl)cc23)nn1)N1CCOCC1 (stereo not drawn) [Example 65] | ≤ 0.01 µM
CC(Oc1ccc2[nH]nc(/C=C/c3ccc(CN4CCOCC4)nn3)c2c1)c1c(Cl)cncc1Cl (stereo not drawn) [Example 66] | ≤ 0.01 µM
C[C@@H](Oc1ccc2[nH]nc(/C=C/c3ccc(CN4CCOCC4)nn3)c2c1)c1c(Cl)cncc1Cl [Example 67] | ≤ 0.01 µM
CC(Oc1ccc2[nH]nc(/C=C/c3ccc(N4CCN(C)CC4)nc3)c2c1)c1c(Cl)cncc1Cl (stereo not drawn) [Example 71] | 0.01 to 0.05 µM
CC(Oc1ccc2[nH]nc(/C=C/c3ccc(CN4CCC(O)CC4)cc3)c2c1)c1c(Cl)cncc1Cl (stereo not drawn) [Example 72] | ≤ 0.01 µM
CC(Oc1ccc2[nH]nc(/C=C/c3ccc(CN4CC[C@@H](N(C)C)C4)cc3)c2c1)c1c(Cl)cncc1Cl (stereo partly drawn) [Example 73] | ≤ 0.01 µM
CC(Oc1ccc2[nH]nc(/C=C/c3ccc(CN4CCC(CO)CC4)cc3)c2c1)c1c(Cl)cncc1Cl (stereo not drawn) [Example 74] | ≤ 0.01 µM
CC(Oc1ccc2[nH]nc(/C=C/c3ccc(CN4CCc5ccccc5C4)cc3)c2c1)c1c(Cl)cncc1Cl (stereo not drawn) [Example 80] | 0.05 to 1 µM
CC(Oc1ccc2[nH]nc(/C=C/c3ccc(CN4CCCCC4)cc3)c2c1)c1c(Cl)cncc1Cl (stereo not drawn) [Example 81] | ≤ 0.01 µM
CC(Oc1ccc2[nH]nc(/C=C/c3ccc(CN4CCC(c5ccccc5)CC4)cc3)c2c1)c1c(Cl)cncc1Cl (stereo not drawn) [Example 82] | 0.05 to 1 µM
CC(Oc1ccc2[nH]nc(/C=C/c3ccc(CN4CCN(c5ccccc5)CC4)cc3)c2c1)c1c(Cl)cncc1Cl (stereo not drawn) [Example 83] | 0.05 to 1 µM

Structure (SMILES) | IC50
CC(Oc1ccc2[nH]nc(/C=C/c3ccc(CN(CCN(C)C)Cc4ccccc4)cc3)c2c1)c1c(Cl)cncc1Cl (stereo not drawn) [Example 86] | 0.05 to 1 µM
CC(Oc1ccc2[nH]nc(/C=C/c3ccc(CNCc4ccccc4)cc3)c2c1)c1c(Cl)cncc1Cl (stereo not drawn) [Example 87] | 0.05 to 1 µM
CC(Oc1ccc2[nH]nc(/C=C/c3ccc(CN4CCOC(CO)C4)cc3)c2c1)c1c(Cl)cncc1Cl (stereo not drawn) [Example 88] | 0.01 to 0.05 µM
CC(Oc1ccc2[nH]nc(/C=C/c3ccc(CNCCN4CCOCC4)cc3)c2c1)c1c(Cl)cncc1Cl (stereo not drawn) [Example 89] | ≤ 0.01 µM
CC(Oc1ccc2[nH]nc(/C=C/c3ccc(CN4CCC(Cc5ccccc5)CC4)cc3)c2c1)c1c(Cl)cncc1Cl (stereo not drawn) [Example 90] | 0.05 to 1 µM
CCN(Cc1ccccc1)Cc1ccc(/C=C/c2n[nH]c3ccc(OC(C)c4c(Cl)cncc4Cl)cc23)cc1 (stereo not drawn) [Example 91] | 0.05 to 1 µM
CC(Oc1ccc2[nH]nc(/C=C/c3ccc(CN4CCN(C)CC4)cc3)c2c1)c1c(Cl)cncc1Cl (stereo not drawn) [Example 93] | 0.01 to 0.05 µM
CC(Oc1ccc2[nH]nc(/C=C/c3ccc(CN(C)Cc4ccccc4)cc3)c2c1)c1c(Cl)cncc1Cl (stereo not drawn) [Example 94] | 0.05 to 1 µM
CCN(Cc1ccccc1)Cc1ccc(/C=C/c2n[nH]c3ccc(OC(C)c4c(Cl)cncc4Cl)cc23)cc1 (stereo not drawn) [Example 95] | 0.05 to 1 µM
CC1CN(Cc2ccc(/C=C/c3n[nH]c4ccc(OC(C)c5c(Cl)cncc5Cl)cc34)cc2)CCN1 (stereo not drawn) [Example 97] | ≤ 0.01 µM
CC(Oc1ccc2[nH]nc(/C=C/c3ccc(CNc4ccccc4)cc3)c2c1)c1c(Cl)cncc1Cl (stereo not drawn) [Example 99] | 0.05 to 1 µM
CC(Oc1ccc2[nH]nc(/C=C/c3ccc(CN4CCCOCC4)cc3)c2c1)c1c(Cl)cncc1Cl (stereo not drawn) [Example 100] | ≤ 0.01 µM
CC(Oc1ccc2[nH]nc(/C=C/c3ccc(CN4CCCC(CO)C4)cc3)c2c1)c1c(Cl)cncc1Cl (stereo not drawn) [Example 101] | ≤ 0.01 µM
CC(Oc1ccc2[nH]nc(/C=C/c3ccc(CN4CCN(C(C)C)CC4)cc3)c2c1)c1c(Cl)cncc1Cl (stereo not drawn) [Example 102] | ≤ 0.01 µM
CNC(=O)C1CCN(Cc2ccc(/C=C/c3n[nH]c4ccc(OC(C)c5c(Cl)cncc5Cl)cc34)cc2)CC1 (stereo not drawn) [Example 103] | ≤ 0.01 µM
CCN(Cc1ccc(/C=C/c2n[nH]c3ccc(OC(C)c4c(Cl)cncc4Cl)cc23)cc1)C1CCCCC1 (stereo not drawn) [Example 104] | 0.05 to 1 µM
CC1CN(Cc2ccc(/C=C/c3n[nH]c4ccc(OC(C)c5c(Cl)cncc5Cl)cc34)cc2)CC(C)O1 (stereo not drawn) [Example 108] | 0.05 to 1 µM
CC(=O)N1CCN(Cc2ccc(/C=C/c3n[nH]c4ccc(OC(C)c5c(Cl)cncc5Cl)cc34)cc2)CC1 (stereo not drawn) [Example 109] | ≤ 0.01 µM

More lines, now with the values ahead:

IC50 | Structure (SMILES)
0.05 to 1 µM | C[C@@H](Oc1ccc2[nH]nc(/C(F)=C\c3ccc(CN4CCOCC4)nc3)c2c1)c1c(Cl)cncc1Cl [Example 2]
0.05 to 1 µM | C[C@H](Oc1ccc2[nH]nc(/C(F)=C\c3ccc(CN4CCOCC4)nc3)c2c1)c1c(Cl)cncc1Cl [Example 3]
0.05 to 1 µM | C[C@@H](Oc1ccc2[nH]nc(/C(F)=C/c3ccc(CN4CCOCC4)nc3)c2c1)c1c(Cl)cncc1Cl [Example 4]
0.05 to 1 µM | C[C@H](Oc1ccc2[nH]nc(/C(F)=C/c3ccc(CN4CCOCC4)nc3)c2c1)c1c(Cl)cncc1Cl [Example 5]
0.05 to 1 µM | C[C@H](Oc1ccc2[nH]nc(/C(O)=C/c3ccc(CN4CCOCC4)nc3)c2c1)c1c(Cl)cncc1Cl [Example 6]
0.01 to 0.05 µM | CC(Oc1ccc2[nH]nc(/C(F)=C/c3ccc(CN4CCC(CO)CC4)nc3)c2c1)c1c(Cl)cncc1Cl (stereo not drawn) [Example 9]
0.01 to 0.05 µM | CC(Oc1ccc2[nH]nc(/C(F)=C/c3ccc(CNC4CCOCC4)nc3)c2c1)c1c(Cl)cncc1Cl (stereo not drawn) [Example 10]
0.05 to 1 µM | CC(Oc1ccc2[nH]nc(/C(F)=C/c3ccc(CNCCN4CCOCC4)nc3)c2c1)c1c(Cl)cncc1Cl (stereo not drawn) [Example 11]
0.01 to 0.05 µM | CC(Oc1ccc2[nH]nc(/C(F)=C/c3ccc(CN4CCC(O)C4)nc3)c2c1)c1c(Cl)cncc1Cl (stereo not drawn) [Example 12]
0.05 to 1 µM | CC(Oc1ccc2[nH]nc(/C(F)=C/c3ccc(CN4CCOCC4)nn3)c2c1)c1c(Cl)cncc1Cl (stereo not drawn) [Example 13]
≤ 0.01 µM | CCN(Cc1ccc(/C(F)=C/c2n[nH]c3ccc(O[C@H](C)c4c(Cl)cncc4Cl)cc23)cn1)C1CCOCC1 [Example 18b]
0.01 to 0.05 µM | C[C@H](Oc1ccc2[nH]nc(/C=C(\F)c3ccc(CN4CCC(CO)CC4)nc3)c2c1)c1c(Cl)cncc1Cl [Example 22]
≤ 0.01 µM | C[C@H](Oc1ccc2[nH]nc(/C=C(\F)c3ccc(CN4CCC(O)C4)nc3)c2c1)c1c(Cl)cncc1Cl (stereo partly drawn) [Example 23]
0.01 to 0.05 µM | C[C@@H](Oc1ccc2[nH]nc(/C=C(\F)c3ccc(CN[C@H]4C[C@H](O)C4)nc3)c2c1)c1c(Cl)cncc1Cl [Example 26]
≤ 0.01 µM | C[C@@H](Oc1ccc2[nH]nc(/C=C(\F)c3ccc(CN4CCN(CCO)CC4)nc3)c2c1)c1c(Cl)cncc1Cl [Example 27]
≤ 0.01 µM | C[C@@H](Oc1ccc2[nH]nc(/C=C(\F)c3ccc(CN4CCC(O)C4)nc3)c2c1)c1c(Cl)cncc1Cl (stereo partly drawn) [Example 31]
0.05 to 1 µM | C[C@@H](Oc1ccc2[nH]nc(/C=C(\F)c3ccc(OC4CCOCC4)nc3)c2c1)c1c(Cl)cncc1Cl [Example 36]
0.05 to 1 µM | C[C@@H](Oc1ccc2[nH]nc(/C=C(\F)c3ccc(O[C@H]4CCOC4)nc3)c2c1)c1c(Cl)cncc1Cl [Example 37]
≤ 0.01 µM | C[C@@H](Oc1ccc2[nH]nc(/C=C(\F)c3ccc(OC4CCNCC4)nc3)c2c1)c1c(Cl)cncc1Cl [Example 43]
≤ 0.01 µM | CC(Oc1ccc2[nH]nc(/C=C/c3ccc(CN4CCOCC4)nc3)c2c1)c1c(Cl)cncc1Cl (stereo not drawn) [Example 48]
0.05 to 1 µM | CC(Oc1ccc2[nH]nc(/C=C/c3ccc(CN4CCOCC4)cc3Cl)c2c1)c1c(Cl)cncc1Cl (stereo not drawn) [Example 55]
0.05 to 1 µM | CC(Oc1ccc2[nH]nc(/C=C/c3ccc(CN4CCOCC4)cc3C#N)c2c1)c1c(Cl)cncc1Cl (stereo not drawn) [Example 60]
≤ 0.01 µM | C[C@@H](Oc1ccc2[nH]nc(/C=C/c3ccc(CNC4CCOCC4)nn3)c2c1)c1c(Cl)cncc1Cl [Example 68]
≤ 0.01 µM | C[C@@H](Oc1ccc2[nH]nc(/C=C/c3ccc(CN4CCC(O)C4)nn3)c2c1)c1c(Cl)cncc1Cl (stereo partly drawn) [Example 69]
≤ 0.01 µM | CC(Oc1ccc2[nH]nc(/C=C/c3ccc(CNC4CCOCC4)cc3)c2c1)c1c(Cl)cncc1Cl (stereo not drawn) [Example 78]
≤ 0.01 µM | CC(Oc1ccc2[nH]nc(/C=C/c3ccc(CN4CCC(O)C4)cc3)c2c1)c1c(Cl)cncc1Cl (stereo not drawn) [Example 106]
0.05 to 1 µM | CC(Oc1ccc2[nH]nc(/C=C/c3ccc(CN4CCOC[C@@H]4C)cc3)c2c1)c1c(Cl)cncc1Cl (stereo partly drawn) [Example 107]
